How the values were obtained:
Aphidius rhopalosiphi = test: LR50; higher = less toxic; conditions: not reported; mortality
Apis mellifera = conditions: acute; duration: 48 hours; dermal; mortality
Rattus norvegicus = conditions: for NOAEL: histopathology: nonneoplastic
Canidae = conditions: chronic; duration: 1 years; oral; Dog Other; organ weight
Anas platyrhynchos = conditions: acute; oral; unspecified; mortality
Daphnia magna = conditions: chronic/long-term; duration: 21 days; reproduction
Folsomia candida = conditions: chronic/long-term; reproduction
Bibionidae = conditions: chronic/long-term; duration: 28 days
Tagia sp. = conditions: mortality

Question: Which LR50 (Aphidius rhopalosiphi) does the source give for `Clc1ccccc1-c1nnc(-c2ccccc2Cl)nn1` [Clofentezine] here?
Answer: 36.2 g/ha

Question: What about the LD50 (Apis mellifera) of the same compound?
Answer: > 84.5 µg/piece

Question: And the LC50 (Oncorhynchus mykiss; acute, duration: 96 hours, mortality)?
Answer: > 0.0146 mg/L

Question: And the NOEC (Oncorhynchus mykiss; chronic/long-term, duration: 97 days)?
Answer: 0.007 mg/L

Question: And the LD50 (Rattus norvegicus; acute, oral, mortality)?
Answer: > 5200 mg/kg-day

Question: What about the NOEC (Rattus norvegicus; chronic) of the same compound?
Answer: 40 mg/kg-day

Question: And the NOAEL (Rattus norvegicus; chronic, duration: 2 years)?
Answer: 2 mg/kg-day

Question: What about the NOAEL (Rattus norvegicus; subchronic, duration: 90 days, oral) of the same compound?
Answer: 2.65 mg/kg-day

Question: And the NOAEL (Canidae)?
Answer: 1.7 mg/kg-day

Question: And the LC50 (Colinus virginianus; acute, oral, diet, mortality)?
Answer: > 4000 mg/kg-day

Question: And the NOEC (Colinus virginianus; reproduction developmental)?
Answer: 7.62 mg/kg-day

Question: What about the LD50 (Anas platyrhynchos) of the same compound?
Answer: > 3000 mg/kg-day

Question: And the NOEC (Daphnia magna)?
Answer: 0.025 mg/L

Question: What about the NOEC (Folsomia candida) of the same compound?
Answer: 160 mg/kg

Question: And the NOEC (Bibionidae)?
Answer: 0.5 mg/L

Question: What about the LC50 (Tagia sp.; acute) of the same compound?
Answer: 430 mg/kg

Question: And the NOEC (Tagia sp.; chronic/long-term)?
Answer: 5310 mg/kg
